# Assay results taken from US20240417410A1, “TRICYCLIC COMPOUNDS FOR THE TREATMENT OF CANCER” (Hoffmann-La Roche Inc., priority 2023, published 2024).
# pIC50: −log10 of the molar value.
# Columns and labels:
# AGS cells (KRAS G12D) = experiment: Cell viability assay (Cell Counting Kit-8, 3-day); type: cell-based, human; settings: Homo sapiens, 72 h, 72 hrs incubation
# In short: (§1)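 After overnight attachment, cells received compounds (0.5% DMSO) for 72 hrs; viability was then quantified with CCK-8, reading OD450 minus OD650, and IC50 values were obtained from a 4-parameter concentration-response fit.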
# [1] = tested on: NCI-H358 cells (KRAS G12C); experiment: Cell viability assay (Cell Counting Kit-8, 3-day); type: cell-based, human; settings: Homo sapiens, NCI-H358, 72 h, NCI-H358, 72 hrs incubation
# In short: as §1
# SW620 cells (KRAS G12V) = experiment: Cell viability assay (Cell Counting Kit-8, 3-day); type: cell-based, human; settings: Homo sapiens, SW-620; SW620, 72 hrs incubation
# In short: as §1
# KRAS G12C-BRAF complex = KRAS G12C-BRAF complex (Homo sapiens (Human), UniProt P01116+P62937, G12C); experiment: KRAS-BRAF with CYPA (500 nM) interaction assay (TR-FRET, Example 136); type: biochemical; settings: KRAS G12C-BRAF disruption
# [2] = tested on: phosphorylation of ERK, KRAS G12C in NCI-H358 cells; experiment: pERK inhibition assay; type: cell-based; settings: Homo sapiens, NCI-H358, 4 h
# In short: (§2)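 Phospho-ERK quantified by in-cell ELISA with TMB read-out at OD450 following 4 h compound exposure (final 0.5% DMSO). Cell lines were SW620 (KRAS G12V), AGS (G12D) and NCI-H358 (G12C), grown in RPMI-1640 with 10% FBS. A 4-parameter sigmoidal model gave the IC50.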
# [3] = tested on: phosphorylation of ERK, KRAS G12D in AGS cells; experiment: pERK inhibition assay; type: cell-based; settings: Homo sapiens, AGS, 4 h
# In short: as §2
# [4] = tested on: phosphorylation of ERK, KRAS G12V in SW620; experiment: pERK inhibition assay; type: cell-based; settings: Homo sapiens, SW-620, 4 h, SW620 cells
# In short: as §2
# Sequence of KRAS G12C-BRAF complex (P01116-2 other isoform, or with tags, fused parts or gaps G12C): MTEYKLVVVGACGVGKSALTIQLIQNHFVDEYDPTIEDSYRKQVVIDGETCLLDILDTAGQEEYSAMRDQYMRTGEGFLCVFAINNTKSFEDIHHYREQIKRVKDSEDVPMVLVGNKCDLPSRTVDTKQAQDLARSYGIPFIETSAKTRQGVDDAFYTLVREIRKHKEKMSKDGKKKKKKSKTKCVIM
# Sequence of KRAS G12C-BRAF complex (P62937 whole entry): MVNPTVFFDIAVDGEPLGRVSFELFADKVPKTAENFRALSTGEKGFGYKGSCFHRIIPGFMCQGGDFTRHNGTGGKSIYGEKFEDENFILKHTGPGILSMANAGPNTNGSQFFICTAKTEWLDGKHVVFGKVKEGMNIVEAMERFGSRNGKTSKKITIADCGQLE
compound,measurement,setting,value
"CO[C@@H](C)c1ncc(N2CCN(C)CC2)cc1-c1c2c3cc(cc4c3n1CCO4)-c1csc(n1)C[C@H](NC(=O)[C@H]1[C@H](C)[C@@H]1C)C(=O)N1CCC[C@H](N1)C(=O)OCC(C)(C)C2 (atropisomer, axis not shown; (M)) [Example 45, (1r,2S,3R)-N-[(7S,13S)-(20M)-20-[2-[(1S)-1-methoxyethyl]-5-(4-methylpiperazin-1-yl)-3-pyridyl]-17,17-dimethyl-8,14-dioxo-15,24-dioxa-4-thia-9,21,30,31-tetrazahexacyclo[23.3.1.1^2,5.1^9,13.0^19,27.0^21,26]hentriaconta-1 (28),2,5 (31),19,25 (29),26-hexaen-7-yl]-2,3-dimethyl-cyclopropanecarboxamide]",pIC50,AGS cells (KRAS G12D),8.44
same,pIC50,[1],8.74
same,pIC50,SW620 cells (KRAS G12V),9.70
same,pIC50,KRAS G12C-BRAF complex,7.85
same,pIC50,[2],9.22
same,pIC50,[3],8.68
same,pIC50,[4],9.70
"CO[C@@H](C)c1ncc(N2CCN(C)CC2)cc1-c1c2c3cc(cc4c3n1CCC4)-c1csc(n1)C[C@H](NC(=O)[C@H]1C[C@@H]1c1cncnc1)C(=O)N1CCC[C@H](N1)C(=O)OCC(C)(C)C2 (atropisomer, axis not shown; (M)) [Example 47, (1S,2S)-N-[(7S,13S)-(20M)-20-[2-[(1S)-1-methoxyethyl]-5-(4-methylpiperazin-1-yl)-3-pyridyl]-17,17-dimethyl-8,14-dioxo-15-oxa-4-thia-9,21,30,31-tetrazahexacyclo[23.3.1.1^2,5.1^9,13.0^19,27.0^21,26]hentriaconta-1 (28),2,5 (31), 19,25 (29),26-hexaen-7-yl]-2-pyrimidin-5-yl-cyclopropanecarboxamide]",pIC50,AGS cells (KRAS G12D),7.99
same,pIC50,[1],8.60
same,pIC50,SW620 cells (KRAS G12V),9.05
same,pIC50,KRAS G12C-BRAF complex,7.67
same,pIC50,[2],8.92
same,pIC50,[3],8.32
same,pIC50,[4],8.85
"CO[C@@H](C)c1ncc(N2CCN(C)CC2)cc1-c1c2c3cc(cc4c3n1CCC4)-c1csc(n1)C[C@H](NC(=O)[C@H]1[C@@H]3CC(F)(F)C[C@@H]31)C(=O)N1CCC[C@H](N1)C(=O)OCC(C)(C)C2 (atropisomer, axis not shown; (M)) [Example 48, (1S,5R)-3,3-difluoro-N-[(7S,13S)-(20M)-20-[2-[(1S)-1-methoxyethyl]-5-(4-methylpiperazin-1-yl)-3-pyridyl]-17,17-dimethyl-8,14-dioxo-15-oxa-4-thia-9,21,30,31-tetrazahexacyclo[23.3.1.1^2,5.1^9,13.0^19,27.0^21,26]hentriaconta-1 (28),2,5 (31), 19,25 (29),26-hexaen-7-yl]bicyclo[3.1.0]hexane-6-carboxamide]",pIC50,AGS cells (KRAS G12D),7.58
same,pIC50,[1],8.02
same,pIC50,SW620 cells (KRAS G12V),8.77
same,pIC50,KRAS G12C-BRAF complex,8.36
same,pIC50,[2],8.92
same,pIC50,[3],8.00
same,pIC50,[4],9.00
"CO[C@@H](C)c1ncc(N2CCN3CCCC[C@@H]3C2)cc1-c1c2c3cc(cc4c3n1CCC4)-c1csc(n1)C[C@H](NC(=O)[C@H]1C[C@@H]1C)C(=O)N1CCC[C@H](N1)C(=O)OCC(C)(C)C2 (atropisomer, axis not shown; (M)) [Example 49, (1S,2S)-N-[(7S,13S)-(20M)-20-[5-[(9αR)-1,3,4,6,7,8,9,9a-octahydropyrido[1,2-a]pyrazin-2-yl]-2-[(1S)-1-methoxyethyl]-3-pyridyl]-17,17-dimethyl-8,14-dioxo-15-oxa-4-thia-9,21,30,31-tetrazahexacyclo[23.3.1.1^2,5.1^9,13.0^19,27.0^21,26]hentriaconta-1 (28),2,5 (31), 19,25 (29),26-hexaen-7-yl]-2-methyl-cyclopropanecarboxamide]",pIC50,AGS cells (KRAS G12D),7.54
same,pIC50,[1],8.01
same,pIC50,SW620 cells (KRAS G12V),8.77
same,pIC50,KRAS G12C-BRAF complex,7.76
same,pIC50,[2],8.62
same,pIC50,[3],7.86
same,pIC50,[4],8.89
"CO[C@@H](C)c1ncc(N2CCN(C)CC2)cc1-c1c2c3cc(cc4c3n1CCC4)-c1csc(n1)C[C@H](NC(=O)[C@H]1C[C@@H]1c1ccncn1)C(=O)N1CCC[C@H](N1)C(=O)OCC(C)(C)C2 (atropisomer, axis not shown; (M)) [Example 50, (1S,2S)-N-[(7S,13S)-(20M)-20-[2-[(1S)-1-methoxyethyl]-5-(4-methylpiperazin-1-yl)-3-pyridyl]-17,17-dimethyl-8,14-dioxo-15-oxa-4-thia-9,21,30,31-tetrazahexacyclo[23.3.1.1^2,5.1^9,13.0^19,27.0^21,26]hentriaconta-1 (28),2,5 (31), 19,25 (29),26-hexaen-7-yl]-2-pyrimidin-4-yl-cyclopropanecarboxamide]",pIC50,AGS cells (KRAS G12D),7.14
same,pIC50,[1],7.62
same,pIC50,SW620 cells (KRAS G12V),8.42
same,pIC50,KRAS G12C-BRAF complex,7.66
same,pIC50,[2],8.46
same,pIC50,[3],7.70
same,pIC50,[4],8.62
"CO[C@@H](C)c1ncc(N2CCN(C)CC2)cc1-c1c2c3cc(cc4c3n1CCO4)-c1csc(n1)C[C@H](NC(=O)[C@H]1C[C@@H]1c1ccccc1)C(=O)N1CCC[C@H](N1)C(=O)OCC(C)(C)C2 (atropisomer, axis not shown; (M)) [Example 51, (1S,2S)-N-[(7S,13S)-(20M)-20-[2-[(1S)-1-methoxyethyl]-5-(4-methylpiperazin-1-yl)-3-pyridyl]-17,17-dimethyl-8,14-dioxo-15,24-dioxa-4-thia-9,21,30,31-tetrazahexacyclo[23.3.1.1^2,5.1^9,13.0^19,27.0^21,26]hentriaconta-1 (29),2,5 (31), 19,25,27-hexaen-7-yl]-2-phenyl-cyclopropanecarboxamide]",pIC50,AGS cells (KRAS G12D),7.88
same,pIC50,[1],8.23
same,pIC50,SW620 cells (KRAS G12V),8.85
same,pIC50,KRAS G12C-BRAF complex,7.68
same,pIC50,[2],9.00
same,pIC50,[3],8.32
same,pIC50,[4],9.15
"CO[C@@H](C)c1ncc(N2CCN(C)CC2)cc1-c1c2c3cc(cc4c3n1CCO4)-c1csc(n1)C[C@H](NC(=O)[C@@H]1[C@@H]3COC[C@@H]31)C(=O)N1CCC[C@H](N1)C(=O)OCC(C)(C)C2 (atropisomer, axis not shown; (M)) [Example 52, (1R,5S,6s)-N-[(7S,13S)-(20M)-20-[2-[(1S)-1-methoxyethyl]-5-(4-methylpiperazin-1-yl)-3-pyridyl]-17,17-dimethyl-8,14-dioxo-15,24-dioxa-4-thia-9,21,30,31-tetrazahexacyclo[23.3.1.1^2,5.1^9,13.0^19,27.0^21,26]hentriaconta-1 (28),2,5 (31), 19,25 (29),26-hexaen-7-yl]-3-oxabicyclo[3.1.0]hexane-6-carboxamide]",pIC50,AGS cells (KRAS G12D),7.92
same,pIC50,[1],8.15
same,pIC50,SW620 cells (KRAS G12V),8.96
same,pIC50,KRAS G12C-BRAF complex,7.79
same,pIC50,[2],8.85
same,pIC50,[3],8.29
same,pIC50,[4],9.15
"CO[C@@H](C)c1ncc(N2CCN(C)CC2)cc1-c1c2c3cc(cc4c3n1CCC4)-c1csc(n1)C[C@H](NC(=O)[C@H]1C[C@@H]1c1cccnc1)C(=O)N1CCC[C@H](N1)C(=O)OCC(C)(C)C2 (atropisomer, axis not shown; (M)) [Example 56, (1S,2S)-N-[(7S,13S)-(20M)-20-[2-[(1S)-1-methoxyethyl]-5-(4-methylpiperazin-1-yl)-3-pyridyl]-17,17-dimethyl-8,14-dioxo-15-oxa-4-thia-9,21,30,31-tetrazahexacyclo[23.3.1.1^2,5.1^9,13.0^19,27.0^21,26]hentriaconta-1 (28),2,5 (31), 19,25 (29),26-hexaen-7-yl]-2-(3-pyridyl)cyclopropanecarboxamide]",pIC50,AGS cells (KRAS G12D),8.28
same,pIC50,[1],8.92
same,pIC50,SW620 cells (KRAS G12V),9.52
same,pIC50,KRAS G12C-BRAF complex,7.99
same,pIC50,[2],9.10
same,pIC50,[3],8.57
same,pIC50,[4],9.22
"CO[C@@H](C)c1ncc(N2CCN(C)CC2)cc1-c1c2c3cc(cc4c3n1CC(F)(F)C4)-c1csc(n1)C[C@H](NC(=O)[C@H]1[C@@H]3COC[C@@H]31)C(=O)N1CCC[C@H](N1)C(=O)OCC(C)(C)C2 (atropisomer, axis not shown; (M)) [Example 60]",pIC50,AGS cells (KRAS G12D),7.49
same,pIC50,[1],8.09
same,pIC50,SW620 cells (KRAS G12V),8.77
same,pIC50,KRAS G12C-BRAF complex,7.82
same,pIC50,[2],8.64
same,pIC50,[3],8.09
same,pIC50,[4],9.05
"CO[C@@H](C)c1ncc(N2CCOCC2)cc1-c1c2c3cc(cc4c3n1CC(C)(C)O4)-c1csc(n1)C[C@H](NC(=O)[C@H]1[C@H](C)[C@@H]1C)C(=O)N1CCC[C@H](N1)C(=O)OCC(C)(C)C2 (atropisomer, axis not shown; (M)) [Example 61, (1r,2R,3S)-N-[(7S,13S)-(20M)-20-[2-[(1S)-1-methoxyethyl]-5-morpholino-3-pyridyl]-17,17,23,23-tetramethyl-8,14-dioxo-15,24-dioxa-4-thia-9,21,30,31-tetrazahexacyclo[23.3.1.1^2,5.1^9,13.0^19,27.0^21,26]hentriaconta-1 (28),2,5 (31), 19,25 (29),26-hexaen-7-yl]-2,3-dimethyl-cyclopropanecarboxamide]",pIC50,AGS cells (KRAS G12D),7.48
same,pIC50,[1],7.65
same,pIC50,SW620 cells (KRAS G12V),8.52
same,pIC50,KRAS G12C-BRAF complex,7.29
same,pIC50,[2],8.07
same,pIC50,[3],7.99
same,pIC50,[4],8.96
